Test results published in ChEMBL document CHEMBL5137054, “Xyloketal B Reverses Nutritional Hepatic Steatosis, Steatohepatitis, and Liver Fibrosis through Activation of the PPARα/PGC1α Signaling Pathway” (J Nat Prod, 2022).
Calls of active or inactive are those of the source.

Key:
Mus musculus [1] = experiment: Reduction in hepatic steatosis in HFD-induced C57BL/6J mouse model of NAFL assessed as reduction in number of lipid droplets in hepatocytes at 20 to 40 mg/kg/day, ip administered from week 7 to week 12 by H&E staining analysis; format: functional, organism-based; conditions: dose 20-40 mg/kg/day, time 6.0 weeks
Mus musculus [2] = experiment: Reduction in hepatic steatosis in HFD-induced C57BL/6J mouse model of NAFL assessed as reduction in serum ALT level at 20 to 40 mg/kg/day, ip administered from week 7 to week 12; format: functional, organism-based; conditions: dose 20-40 mg/kg/day, time 6.0 weeks
Mus musculus [3] = experiment: Upregulation of cytochrome P450-4A10 enzyme expression in liver of HFD-induced C57BL/6J mouse model of NAFL administered intraperitoneally from week 7 to week 12 by immunoblotting analysis; format: functional; conditions: dose 20-40 mg/kg/day, route ip, time 6.0 weeks, DDE = dose-dependent effect
Mus musculus [4] = experiment: Upregulation of peroxisomal acyl-coenzyme A oxidase-2 enzyme expression in liver of HFD-induced C57BL/6J mouse model of NAFL at 15 mg/kg/day, ip administered from week 7 to week 12 by immunoblotting analysis; format: functional, organism-based; conditions: time 6.0 weeks

Measured: Activity

C[C@H]1CO[C@]2(C)Oc3cc(O)c4c(c3C[C@H]12)O[C@@]1(C)OC[C@H](C)[C@H]1C4
active: Mus musculus [1] | Mus musculus [2] | Mus musculus [3] Dde | Mus musculus [4]
